± gives the expanded uncertainty stated by the source.
What was measured:
[1] = Liquid, Ebulliometric method (Recirculating still)
[2] = refractive index (Na D-line) (dimensionless); conditions: 298.15 K; 101.33 kPa; Liquid; Standard Abbe refractometry

CCOC(C)(C)C [2-ethoxy-2-methylpropane]
[1]
Conditions | vapor or sublimation pressure [kPa]
312.51 K | 30.76 ± 0.37
318.88 K | 39.54 ± 0.37
326.24 K | 52.05 ± 0.39
331.11 K | 62.01 ± 0.4
333.15 K | 66.52 ± 0.51
335.04 K | 71.06 ± 0.42
339.18 K | 81.64 ± 0.43
342.53 K | 91.06 ± 0.45
343.15 K | 92.96 ± 0.56
345.9 K | 101.41 ± 0.46

Conditions | refractive index
[2] | 1.373 ± 0.0007

CCSCC [3-thiapentane]
[1]
Conditions | vapor or sublimation pressure [kPa]
333.15 K | 34.97 ± 0.41
343.15 K | 50.14 ± 0.45
353.15 K | 70.15 ± 0.49

Conditions | refractive index
[2] | 1.44 ± 0.0007

C1CCCCC1 [cyclohexane]
[1]
Conditions | vapor or sublimation pressure [kPa]
318.47 K | 30.51 ± 0.37
326.06 K | 40.65 ± 0.37
331.63 K | 49.56 ± 0.38
337.52 K | 60.6 ± 0.39
342.21 K | 70.8 ± 0.41
343.15 K | 72.66 ± 0.52
346.25 K | 80.64 ± 0.43
350.08 K | 90.89 ± 0.44
353.15 K | 99.41 ± 0.58
353.32 K | 100.38 ± 0.45

Conditions | refractive index
[2] | 1.4235 ± 0.0007

Cc1ccccc1 [toluene]
Conditions | refractive index
[2] | 1.4939 ± 0.0007
